Reference: ChEMBL document CHEMBL5715954, “Silencing c-Myc translation as a therapeutic strategy through targeting PI3Kδ and CK1ε in hematological malignancies” (Blood, 2017)

Key:
Set-up in all cases: scale not given: the % may be the effect or the level left
[1] = target: T1, Tyrosine-protein kinase Mer (Homo sapiens) (UniProt Q12866); experiment: Inhibition of human c-MER assessed as enzyme activity at 1 uM using poly[Glu:Tyr] (4:1) as substrate preincubated for 20 mins followed by [gamma-33P]-ATP addition and measured after 120 mins by radiometric Hot-SpotSM Kinase assay relative to control
T1 sequence (whole entry): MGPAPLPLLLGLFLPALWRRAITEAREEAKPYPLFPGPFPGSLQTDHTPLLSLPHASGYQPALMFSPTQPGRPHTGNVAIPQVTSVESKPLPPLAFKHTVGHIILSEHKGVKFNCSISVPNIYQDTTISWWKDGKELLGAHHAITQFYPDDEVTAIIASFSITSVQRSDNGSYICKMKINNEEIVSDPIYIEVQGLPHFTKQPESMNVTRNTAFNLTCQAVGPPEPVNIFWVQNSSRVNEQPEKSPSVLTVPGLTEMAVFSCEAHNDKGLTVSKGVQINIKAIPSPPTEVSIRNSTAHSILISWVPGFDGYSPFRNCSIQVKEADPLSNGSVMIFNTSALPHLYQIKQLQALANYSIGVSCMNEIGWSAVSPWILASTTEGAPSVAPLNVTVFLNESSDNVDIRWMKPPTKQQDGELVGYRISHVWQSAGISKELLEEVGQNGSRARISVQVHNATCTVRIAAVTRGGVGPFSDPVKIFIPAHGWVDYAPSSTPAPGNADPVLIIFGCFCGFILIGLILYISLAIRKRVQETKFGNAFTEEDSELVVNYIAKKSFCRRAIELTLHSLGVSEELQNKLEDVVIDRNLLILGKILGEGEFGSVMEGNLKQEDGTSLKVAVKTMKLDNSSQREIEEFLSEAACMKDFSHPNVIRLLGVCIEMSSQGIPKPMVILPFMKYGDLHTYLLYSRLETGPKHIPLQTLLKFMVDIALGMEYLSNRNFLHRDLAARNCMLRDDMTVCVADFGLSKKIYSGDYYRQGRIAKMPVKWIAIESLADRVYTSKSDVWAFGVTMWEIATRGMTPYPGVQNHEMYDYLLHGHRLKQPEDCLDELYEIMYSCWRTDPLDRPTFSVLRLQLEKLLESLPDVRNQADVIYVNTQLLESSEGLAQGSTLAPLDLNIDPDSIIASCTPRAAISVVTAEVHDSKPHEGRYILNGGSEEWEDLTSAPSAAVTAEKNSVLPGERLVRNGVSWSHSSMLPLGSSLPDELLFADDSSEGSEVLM

[2] = target: Calcium/calmodulin-dependent protein kinase type 1 (Homo sapiens) (UniProt Q14012); experiment: Inhibition of human CAMK1a assessed as enzyme activity at 1 uM using KKALRRQETVDAL as substrate preincubated for 20 mins followed by [gamma-33P]-ATP addition and measured after 120 mins by radiometric Hot-SpotSM Kinase assay relative to control
Calcium/calmodulin-dependent protein kinase type 1 (Homo sapiens), sequence (Q14012 whole entry, looked up, the tested form may be a part): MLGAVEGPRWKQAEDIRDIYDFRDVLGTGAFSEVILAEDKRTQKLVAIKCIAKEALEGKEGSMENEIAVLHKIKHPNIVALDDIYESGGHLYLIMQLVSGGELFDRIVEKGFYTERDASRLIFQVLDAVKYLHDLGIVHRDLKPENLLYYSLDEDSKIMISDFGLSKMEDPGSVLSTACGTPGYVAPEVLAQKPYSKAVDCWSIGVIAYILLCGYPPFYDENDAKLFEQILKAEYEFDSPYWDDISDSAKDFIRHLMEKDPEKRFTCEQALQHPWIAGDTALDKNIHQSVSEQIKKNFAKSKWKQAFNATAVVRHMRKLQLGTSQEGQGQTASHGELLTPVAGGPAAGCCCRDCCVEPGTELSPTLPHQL

[3] = target: Epithelial discoidin domain-containing receptor 1 (Homo sapiens) (UniProt Q08345); experiment: Inhibition of human DDR1 assessed as enzyme activity at 1 uM using KKSRGDYMTMQIG as substrate preincubated for 20 mins followed by [gamma-33P]-ATP addition and measured after 120 mins by radiometric Hot-SpotSM Kinase assay relative to control
Epithelial discoidin domain-containing receptor 1 (Homo sapiens), sequence (Q08345 whole entry, the tested form may be a part): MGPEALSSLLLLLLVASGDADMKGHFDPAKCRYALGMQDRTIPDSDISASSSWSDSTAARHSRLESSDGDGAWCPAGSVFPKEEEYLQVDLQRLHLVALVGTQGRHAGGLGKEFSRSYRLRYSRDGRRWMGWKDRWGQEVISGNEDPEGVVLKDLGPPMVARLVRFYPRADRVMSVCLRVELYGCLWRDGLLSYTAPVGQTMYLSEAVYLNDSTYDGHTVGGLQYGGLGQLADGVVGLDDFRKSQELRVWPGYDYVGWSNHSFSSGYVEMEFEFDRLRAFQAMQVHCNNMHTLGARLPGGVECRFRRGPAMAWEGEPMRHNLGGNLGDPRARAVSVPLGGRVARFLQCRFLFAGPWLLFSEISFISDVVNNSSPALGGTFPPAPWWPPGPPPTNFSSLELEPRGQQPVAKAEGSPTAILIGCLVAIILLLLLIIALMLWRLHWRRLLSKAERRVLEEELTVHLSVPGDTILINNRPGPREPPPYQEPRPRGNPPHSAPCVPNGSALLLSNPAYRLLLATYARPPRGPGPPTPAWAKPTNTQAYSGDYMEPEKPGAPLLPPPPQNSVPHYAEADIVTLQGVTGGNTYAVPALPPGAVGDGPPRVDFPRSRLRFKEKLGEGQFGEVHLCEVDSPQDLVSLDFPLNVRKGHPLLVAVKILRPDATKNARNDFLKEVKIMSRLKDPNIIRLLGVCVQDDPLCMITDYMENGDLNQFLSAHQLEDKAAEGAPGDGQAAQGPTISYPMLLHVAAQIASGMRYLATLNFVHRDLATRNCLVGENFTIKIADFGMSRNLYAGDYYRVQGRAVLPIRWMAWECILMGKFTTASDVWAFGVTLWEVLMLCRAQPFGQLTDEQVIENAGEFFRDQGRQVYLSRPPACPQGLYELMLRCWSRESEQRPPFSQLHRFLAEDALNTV

[4] = target: Mitogen-activated protein kinase kinase kinase 9 (Homo sapiens) (UniProt P80192); experiment: Inhibition of human MLK1 assessed as enzyme activity at 1 uM using casein as substrate preincubated for 20 mins followed by [gamma-33P]-ATP addition and measured after 120 mins by radiometric Hot-SpotSM Kinase assay relative to control
Mitogen-activated protein kinase kinase kinase 9 (Homo sapiens), sequence (P80192 whole entry, looked up): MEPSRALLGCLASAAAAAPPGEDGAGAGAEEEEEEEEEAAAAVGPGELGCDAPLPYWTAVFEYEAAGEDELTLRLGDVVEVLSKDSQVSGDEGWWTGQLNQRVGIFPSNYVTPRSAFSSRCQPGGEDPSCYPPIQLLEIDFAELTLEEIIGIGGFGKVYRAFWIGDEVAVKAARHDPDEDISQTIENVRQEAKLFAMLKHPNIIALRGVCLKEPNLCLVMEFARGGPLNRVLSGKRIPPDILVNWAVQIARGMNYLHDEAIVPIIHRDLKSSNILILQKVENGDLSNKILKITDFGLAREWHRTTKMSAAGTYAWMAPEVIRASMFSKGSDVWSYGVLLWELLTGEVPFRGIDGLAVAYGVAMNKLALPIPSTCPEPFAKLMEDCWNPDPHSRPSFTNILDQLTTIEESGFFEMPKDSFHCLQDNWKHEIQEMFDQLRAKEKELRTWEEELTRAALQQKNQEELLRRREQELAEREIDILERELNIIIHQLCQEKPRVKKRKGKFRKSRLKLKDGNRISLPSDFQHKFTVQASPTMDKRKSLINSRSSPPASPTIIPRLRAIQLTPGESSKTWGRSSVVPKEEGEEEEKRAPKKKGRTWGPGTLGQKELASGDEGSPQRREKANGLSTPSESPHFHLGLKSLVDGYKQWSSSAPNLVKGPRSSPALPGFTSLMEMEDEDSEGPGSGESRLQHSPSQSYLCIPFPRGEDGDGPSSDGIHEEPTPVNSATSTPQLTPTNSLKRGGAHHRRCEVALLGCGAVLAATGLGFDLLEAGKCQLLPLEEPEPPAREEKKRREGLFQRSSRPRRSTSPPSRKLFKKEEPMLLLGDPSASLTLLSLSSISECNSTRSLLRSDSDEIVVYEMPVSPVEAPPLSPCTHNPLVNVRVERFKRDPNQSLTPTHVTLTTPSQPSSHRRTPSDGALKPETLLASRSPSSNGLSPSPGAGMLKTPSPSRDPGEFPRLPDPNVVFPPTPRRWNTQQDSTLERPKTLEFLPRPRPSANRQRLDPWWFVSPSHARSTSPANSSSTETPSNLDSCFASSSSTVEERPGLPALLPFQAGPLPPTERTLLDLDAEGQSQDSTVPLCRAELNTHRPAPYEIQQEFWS

[5] = target: Ribosomal protein S6 kinase alpha-5 (Homo sapiens) (UniProt O75582); experiment: Inhibition of human MSK1 assessed as enzyme activity at 1 uM using GRPRTSSFAEG as substrate preincubated for 20 mins followed by [gamma-33P]-ATP addition and measured after 120 mins by radiometric Hot-SpotSM Kinase assay relative to control
Ribosomal protein S6 kinase alpha-5 (Homo sapiens), sequence (O75582 whole entry, looked up): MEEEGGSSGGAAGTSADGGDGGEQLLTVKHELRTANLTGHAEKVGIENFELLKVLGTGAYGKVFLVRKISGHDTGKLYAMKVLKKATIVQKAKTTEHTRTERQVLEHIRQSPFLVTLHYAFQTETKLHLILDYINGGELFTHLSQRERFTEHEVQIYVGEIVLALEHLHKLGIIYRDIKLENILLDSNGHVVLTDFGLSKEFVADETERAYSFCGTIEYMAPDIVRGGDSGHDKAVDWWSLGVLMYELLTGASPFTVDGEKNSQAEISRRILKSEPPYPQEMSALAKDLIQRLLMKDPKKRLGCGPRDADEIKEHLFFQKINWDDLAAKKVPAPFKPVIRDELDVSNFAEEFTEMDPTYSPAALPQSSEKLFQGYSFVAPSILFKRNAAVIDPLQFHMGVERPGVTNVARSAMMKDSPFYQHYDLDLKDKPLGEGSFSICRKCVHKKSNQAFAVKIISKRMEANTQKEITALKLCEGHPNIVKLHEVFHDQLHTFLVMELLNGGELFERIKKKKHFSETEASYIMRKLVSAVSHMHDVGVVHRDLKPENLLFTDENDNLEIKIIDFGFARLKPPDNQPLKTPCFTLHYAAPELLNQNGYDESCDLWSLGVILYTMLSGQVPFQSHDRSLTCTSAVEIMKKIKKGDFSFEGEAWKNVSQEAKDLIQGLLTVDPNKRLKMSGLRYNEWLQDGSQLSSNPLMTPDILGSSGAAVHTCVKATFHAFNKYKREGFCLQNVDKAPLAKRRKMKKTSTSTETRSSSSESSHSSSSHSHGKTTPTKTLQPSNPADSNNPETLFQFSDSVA

[6] = target: Serine/threonine-protein kinase PAK 1 (Homo sapiens) (UniProt Q13153); experiment: Inhibition of human PAK1 assessed as enzyme activity at 1 uM using RRRLSFAEPG as substrate preincubated for 20 mins followed by [gamma-33P]-ATP addition and measured after 120 mins by radiometric Hot-SpotSM Kinase assay relative to control
Serine/threonine-protein kinase PAK 1 (Homo sapiens), sequence (Q13153 whole entry): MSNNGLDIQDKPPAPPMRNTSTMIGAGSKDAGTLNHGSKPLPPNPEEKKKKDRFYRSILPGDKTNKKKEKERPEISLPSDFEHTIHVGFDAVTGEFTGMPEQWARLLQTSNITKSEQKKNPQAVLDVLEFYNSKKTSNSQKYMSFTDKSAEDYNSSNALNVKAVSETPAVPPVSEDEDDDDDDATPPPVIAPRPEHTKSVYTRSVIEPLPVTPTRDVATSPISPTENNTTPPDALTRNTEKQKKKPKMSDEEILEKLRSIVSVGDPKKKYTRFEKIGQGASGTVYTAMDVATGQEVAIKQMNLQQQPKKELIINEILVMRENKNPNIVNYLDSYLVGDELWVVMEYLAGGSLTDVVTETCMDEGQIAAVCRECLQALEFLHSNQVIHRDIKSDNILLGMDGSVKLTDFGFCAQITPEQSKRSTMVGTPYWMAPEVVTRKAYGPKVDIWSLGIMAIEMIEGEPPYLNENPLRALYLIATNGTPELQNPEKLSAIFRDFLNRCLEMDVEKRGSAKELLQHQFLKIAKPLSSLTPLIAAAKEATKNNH

[7] = target: Serine/threonine-protein kinase PAK 3 (Homo sapiens) (UniProt O75914); experiment: Inhibition of human PAK3 assessed as enzyme activity at 1 uM using RRRLSFAEPG as substrate preincubated for 20 mins followed by [gamma-33P]-ATP addition and measured after 120 mins by radiometric Hot-SpotSM Kinase assay relative to control
Serine/threonine-protein kinase PAK 3 (Homo sapiens), sequence (O75914 whole entry, looked up): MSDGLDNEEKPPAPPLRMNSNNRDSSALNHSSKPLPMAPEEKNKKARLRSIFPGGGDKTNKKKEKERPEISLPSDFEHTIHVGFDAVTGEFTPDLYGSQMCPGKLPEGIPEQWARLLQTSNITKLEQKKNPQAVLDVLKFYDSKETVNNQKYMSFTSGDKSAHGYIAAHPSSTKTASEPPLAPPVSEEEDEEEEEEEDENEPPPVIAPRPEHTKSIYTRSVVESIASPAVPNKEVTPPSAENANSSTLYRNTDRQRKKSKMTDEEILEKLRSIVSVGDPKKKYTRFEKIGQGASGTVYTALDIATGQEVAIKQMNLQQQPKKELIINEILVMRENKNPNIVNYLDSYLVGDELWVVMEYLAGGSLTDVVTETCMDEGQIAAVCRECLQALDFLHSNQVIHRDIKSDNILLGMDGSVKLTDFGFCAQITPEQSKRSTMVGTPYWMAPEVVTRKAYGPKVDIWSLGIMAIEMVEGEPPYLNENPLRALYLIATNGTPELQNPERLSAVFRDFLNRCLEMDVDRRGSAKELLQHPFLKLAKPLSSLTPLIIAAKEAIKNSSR

[8] = target: T2, Protein kinase C zeta type (Homo sapiens) (UniProt Q05513); experiment: Inhibition of human PKCzeta assessed as enzyme activity at 1 uM using ERMRPRKRQGSVRRRV as substrate preincubated for 20 mins followed by [gamma-33P]-ATP addition and measured after 120 mins by radiometric Hot-SpotSM Kinase assay relative to control
T2 sequence (whole entry): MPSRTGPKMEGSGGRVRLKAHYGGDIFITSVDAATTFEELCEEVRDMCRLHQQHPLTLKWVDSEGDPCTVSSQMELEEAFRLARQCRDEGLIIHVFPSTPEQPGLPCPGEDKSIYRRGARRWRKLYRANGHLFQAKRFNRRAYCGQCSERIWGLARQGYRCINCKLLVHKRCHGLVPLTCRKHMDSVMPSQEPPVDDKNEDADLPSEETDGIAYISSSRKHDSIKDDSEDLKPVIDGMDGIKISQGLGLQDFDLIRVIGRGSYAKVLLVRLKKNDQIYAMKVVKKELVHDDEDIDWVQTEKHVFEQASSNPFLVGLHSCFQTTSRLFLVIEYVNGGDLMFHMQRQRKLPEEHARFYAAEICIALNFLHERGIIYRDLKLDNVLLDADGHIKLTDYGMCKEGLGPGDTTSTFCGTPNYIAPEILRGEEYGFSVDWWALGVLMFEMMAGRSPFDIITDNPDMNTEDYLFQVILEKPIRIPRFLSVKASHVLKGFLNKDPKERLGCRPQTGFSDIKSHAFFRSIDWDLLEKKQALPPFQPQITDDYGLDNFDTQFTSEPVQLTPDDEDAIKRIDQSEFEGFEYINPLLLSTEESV

| SMILES | Activity [1] [%] | Activity [2] [%] | Activity [3] [%] | Activity [4] [%] | Activity [5] [%] | Activity [6] [%] | Activity [7] [%] | Activity [8] [%] |
| --- | --- | --- | --- | --- | --- | --- | --- | --- |
| CC[C@H](Nc1ncnc2[nH]cnc12)c1nc2cccc(F)c2c(=O)n1-c1ccccc1 | 104 | 96.8 | 83.8 | 91.2 | 94.6 | 98.7 | 94.5 | 91.5 |
| C[C@H](Nc1ncnc2nc[nH]c12)c1cc2cccc(Cl)c2c(=O)n1-c1ccccc1 | 103 | 103 | 88.6 | 94 | 96.3 | 97.5 | 95.5 | 89.9 |
| CC(C)Oc1ccc(-c2nn([C@@H](C)c3oc4ccc(F)cc4c(=O)c3-c3cccc(F)c3)c3ncnc(N)c23)cc1F [UMBRALISIB] | 102 | 99.6 | 83.1 | 97.6 | 96.8 | 98.2 | 96.5 | 93.6 |
